Test results published in PMC12528448, “Resistance to CDK7 inhibitors directed by acquired mutation of a conserved residue in cancer cells” (The EMBO Journal, 2025).
Several values for one entry are separate records, joined by “and”; a condition that tells them apart may be missing. Equal values may be shown once.

Key:
Type in all cases: cell-based, human
MCF7 cells = experiment: Growth assay (SRB), MCF7; conditions: for % Growth: biological reps
Procedure: (§1) To determine the IC50 of drug treatments on growth, cells were seeded in 96-well culture plates. Two days after seeding, the cells were treated with increasing concentrations of drugs and incubated for 4 days. Cell number was determined using the SRB assay (Skehan et al, [1990]), and IC50 values were calculated using non-linear regression curve fitting in GraphPad Prism v10. For all other growth experiments, cells were seeded into 96-well plates, and appropriate drugs were added 2 days after seeding. Cells were then incubated in an IncuCyte Zoom live-cell imager, with cell confluency measured every 6 h. Cell doubling times were determined by non-linear curve fitting (exponential growth equation) in GraphPad Prism v10.

22Rv1-CDK7-D97N cells = experiment: Growth assay (SRB), 22Rv1 CDK7-D97N knock-in pool; conditions: for % Growth: 22Rv1 CDK7 D99N
Procedure: as §1
(§2) Alt-R^TM S.p. Cas9 nuclease V3, Alt-R CRISPR-Cas9 crRNA, TracrRNA and the donor templates were obtained from Integrated DNA Technologies. […] Cells were treated with 0.7 µM of Alt-R HDR Enhancer V2 to improve HRD efficiency. Sequences of the CRISPRs in the crRNA and the donor templates are shown in the Reagents and tools table. Donor templates were designed to include non-coding substitutions to aid genome DNA PCR for identifying knock-in events and to facilitate cloning; these substitutions are noted in the Reagents and tools table.

22Rv1 cells = experiment: Growth assay (SRB), 22Rv1
Procedure: as §1

LNCaP cells = experiment: Growth assay (SRB), LNCaP
Procedure: as §1

LNCaP-CDK7-D97N cells = experiment: Growth assay (SRB), LNCaP CDK7-D97N knock-in; conditions: for % Growth: LNCaP CDK7 D99N
Procedure: as §1, §2

MCF7-CDK7-D97N cells = experiment: Growth assay (SRB), MCF7 CDK7-D97N knock-in; conditions: for % Growth: MCF7 CDK7 D99N, biological reps
Procedure: as §1, §2

22Rv1-SamR cells = experiment: Growth assay (SRB), Samuraciclib-resistant 22Rv1; conditions: for % Growth: 22Rv1 SamR, 4 days, biological reps
Procedure: as §1

C=CC(=O)Nc1ccc(C(=O)Nc2[nH]nc3c2CN(C(=O)N[C@H](CN(C)C)c2ccccc2)C3(C)C)cc1 [YKL-5-124]
IC50 (MCF7 cells; 4 days, SRB): 5.5 nM | % Growth (MCF7 cells; Log10 Conc. (nM) 0.09, 4 days): 84.50% and 79.80% and 95.09% and 95.13% | % Growth (MCF7 cells; Log10 Conc. (nM) -0.52, 4 days): 99.55% and 100.47% and 99.34% and 100.40% | % Growth (MCF7 cells; Log10 Conc. (nM) -1.12, 4 days): 92.16% and 94.11% and 96.62% and 97.54% | Sensitivity in growth assays (22Rv1-CDK7-D97N cells; 22Rv1-CDK7-D97N vs parental): remaining sensitive | % Growth (22Rv1-CDK7-D97N cells; Log10 Conc. (nM) 0.09): 95.04% and 95.37% | % Growth (22Rv1-CDK7-D97N cells; Log10 Conc. (nM) 0.69): 93.89% and 97.25% | % Growth (22Rv1-CDK7-D97N cells; Log10 Conc. (nM) 1.29): 85.36% and 88.43% | % Growth (22Rv1-CDK7-D97N cells; Log10 Conc. (nM) 1.89): 88.25% and 90.69% | % Growth (22Rv1-CDK7-D97N cells; Log10 Conc. (nM) 2.49): 93.92% and 88.27% | % Growth (22Rv1-CDK7-D97N cells; Log10 Conc. (nM) 3.10): 65.35% and 66.63% | % Growth (22Rv1-CDK7-D97N cells; Log10 Conc. (nM) 3.70): 34.13% and 30.83% | % Growth (22Rv1-CDK7-D97N cells; Log10 Conc. (nM) -0.52): 104.35% and 94.29% | % Growth (22Rv1-CDK7-D97N cells; Log10 Conc. (nM) -1.12): 96.98% and 94.29% | % Growth (22Rv1 cells; 22Rv1, Log10 Conc. (nM) 0.09): 59.88% and 63.28% | % Growth (22Rv1 cells; 22Rv1, Log10 Conc. (nM) 0.69): 24.70% and 25.33% | % Growth (22Rv1 cells; 22Rv1, Log10 Conc. (nM) 1.29): 14.01% and 10.35% | % Growth (22Rv1 cells; 22Rv1, Log10 Conc. (nM) 1.89): 12.24% and 10.17% | % Growth (22Rv1 cells; 22Rv1, Log10 Conc. (nM) 2.49): 11.07% and 8.36% | % Growth (22Rv1 cells; 22Rv1, Log10 Conc. (nM) 3.10): 1.88% and 3.47% | % Growth (22Rv1 cells; 22Rv1, Log10 Conc. (nM) 3.70): 0.13% and -0.45% | % Growth (22Rv1 cells; 22Rv1, Log10 Conc. (nM) -0.52): 83.49% and 90.26% | % Growth (22Rv1 cells; 22Rv1, Log10 Conc. (nM) -1.12): 94.90% and 93.56% | % Growth (22Rv1 cells; 22Rv1, Log10 Conc. (nM) 0.09, 4 days, biological reps): 93.20% and 88.05% | % Growth (22Rv1 cells; 22Rv1, Log10 Conc. (nM) 0.69, 4 days, biological reps): 85.45% and 77.80% | % Growth (22Rv1 cells; 22Rv1, Log10 Conc. (nM) 1.29, 4 days, biological reps): 56.44% and 44.90% | % Growth (22Rv1 cells; 22Rv1, Log10 Conc. (nM) 1.89, 4 days, biological reps): 5.80% and -0.07% | % Growth (22Rv1 cells; 22Rv1, Log10 Conc. (nM) 2.49, 4 days, biological reps): -4.12% and -6.31% | % Growth (22Rv1 cells; 22Rv1, Log10 Conc. (nM) 3.10, 4 days, biological reps): -6.49% and -7.67% | % Growth (22Rv1 cells; 22Rv1, Log10 Conc. (nM) 3.70, 4 days, biological reps): -6.63% and -7.61% | % Growth (22Rv1 cells; 22Rv1, Log10 Conc. (nM) -0.52, 4 days, biological reps): 98.36% and 93.94% | % Growth (22Rv1 cells; 22Rv1, Log10 Conc. (nM) -1.12, 4 days, biological reps): 96.18% and 94.83% | % Growth (LNCaP cells; Log10 Conc. (nM) 0.09): 110.86% and 92.81% | % Growth (LNCaP cells; Log10 Conc. (nM) 0.69): 85.55% and 79.81% | % Growth (LNCaP cells; Log10 Conc. (nM) 3.70): -11.67% and -9.39% | % Growth (LNCaP cells; Log10 Conc. (nM) -0.52): 109.97% and 100.05% | % Growth (LNCaP cells; Log10 Conc. (nM) -1.12): 106.79% and 104.82% | % Growth (LNCaP-CDK7-D97N cells; Log10 Conc. (nM) 0.09): 95.98% and 86.14% | % Growth (LNCaP-CDK7-D97N cells; Log10 Conc. (nM) 0.69): 91.96% and 46.53% | % Growth (LNCaP-CDK7-D97N cells; Log10 Conc. (nM) -0.52): 97.82% and 101.86% | % Growth (LNCaP-CDK7-D97N cells; Log10 Conc. (nM) -1.12): 92.55% and 85.18% | Sensitivity in growth assays (LNCaP-CDK7-D97N cells; LNCaP-CDK7-D97N vs parental): remaining sensitive | Resistance (Fold) (MCF7-CDK7-D97N cells; MCF7-CDK7-D97N vs MCF7 WT): 1.45 fold | IC50 (MCF7-CDK7-D97N cells; MCF7-CDK7-D97N, 4 days, SRB): 8 nM | % Growth (MCF7-CDK7-D97N cells; Log10 Conc. (nM) 0.09, 4 days): 94.47% and 108.04% and 95.31% and 94.01% | % Growth (MCF7-CDK7-D97N cells; Log10 Conc. (nM) 0.69, 4 days): 69.10% and 46.95% and 78.88% and 82.06% | % Growth (MCF7-CDK7-D97N cells; Log10 Conc. (nM) -0.52, 4 days): 98.82% and 155.20% and 98.59% and 96.08% | % Growth (MCF7-CDK7-D97N cells; Log10 Conc. (nM) -1.12, 4 days): 96.88% and 112.86% and 97.89% and 98.06% | Sensitivity in growth assays (22Rv1-SamR cells; 22Rv1-SamR): remained sensitive | Resistance (Fold), fold increase in IC50 of 22Rv1-SamR relative to 22Rv1 (22Rv1-SamR cells; 22Rv1-SamR vs 22Rv1): 2.0 fold | % Growth (22Rv1-SamR cells; Log10 Conc. (nM) 0.09): 83.75% and 87.25% | % Growth (22Rv1-SamR cells; Log10 Conc. (nM) 0.69): 68.41% and 67.61% | % Growth (22Rv1-SamR cells; Log10 Conc. (nM) 1.29): 30.25% and 41.41% | % Growth (22Rv1-SamR cells; Log10 Conc. (nM) 1.89): -7.69% and -2.73% | % Growth (22Rv1-SamR cells; Log10 Conc. (nM) 2.49): -11.43% and -7.53% | % Growth (22Rv1-SamR cells; Log10 Conc. (nM) 3.10): -11.82% and -8.43% | % Growth (22Rv1-SamR cells; Log10 Conc. (nM) 3.70): -15.22% and -10.53% | % Growth (22Rv1-SamR cells; Log10 Conc. (nM) -0.52): 93.15% and 99.90% | % Growth (22Rv1-SamR cells; Log10 Conc. (nM) -1.12): 93.43% and 95.60%
